# Experimental data reported in patent US20040077651A1, “Remedies for cancer” (priority 2000, published 2004).
# Molecular target: T1, Human type-X sPLA2 (Homo sapiens, UniProt O15496)
# T1 construct: made in house; unpurified culture supernatant
# T1 sequence (O15496 43-165): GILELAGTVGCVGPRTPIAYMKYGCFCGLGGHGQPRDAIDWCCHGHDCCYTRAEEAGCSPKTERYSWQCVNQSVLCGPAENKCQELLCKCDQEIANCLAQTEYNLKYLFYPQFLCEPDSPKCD
# Test: Type-X sPLA2 inhibition test (chromogenic assay, diheptanoylthio PC)
# Format: biochemical
# Conditions: culture supernatant of CHO cells expressing human type-X sPLA2, 30 min at 40° C., absorbance at 405 nm
# Source text: cDNA sequence encoding human type-X sPLA2 (Cupillard et al., J. Biol. Chem, 1997, 272, 15745-15752) was inserted into the downstream region of the promoter of pSVL SV40 Late Promoter Expression Vector (Amersham Pharmacia Biotech Inc.) that is an expression vector for mammalian cells. The obtained expression vector was transfected into the host CHO cells with a LipofectAMINE reagent (Gibco BRL Inc.) according to the manufacture's instruction to obtain the CHO cells stably expressing human type-X sPLA2. The transfected cell was cultured in α-MEM medium containing 10% fetal calf serum for 3 days and its culture supernatant was used for the measurement of each enzyme activity.
# In order to identify and evaluate an inhibitor of type-X sPLA2, the following chromogenic assay is utilized. This assay has been applied for high volume screening using a 96-well microtiterplate. A general explanation for this assay is described in “Analysis of Human Synovial Fluid Phospholipase A2 on Short Chain Phosphatidylcholine-Mixed Micelles: Development of a Spectrophotometric Assay Suitable for a Micortiterplate Reader” (Analytical Biochemistry, 204, pp 190-197, 1992 by Laure. J. Reynolds. Lori L. Hughes and Edward A. Dennis.
# Test compounds (or solvent blank) were added according to the alignment of plates that had been previously set. Human type-X sPLA2 was incubated (30 min at 40° C. (15 μl/well)) with diheptanoylthio PC (1 mM) in the presence of Triton X-100 (0.3 mM) and 5,5′-dithiobis(2-nitrobenzoic acid) (125 μM) in Tris-HCl buffer (25 mM, pH 7.5) containing CaCl2 (10 mM), KCl (100 mM), and bovine serum albumin (1.0 mg/mL). The changes in the absorbance at 405 nm were measured and the inhibition activities were calculated.
# The IC50 value was determined by plotting the log concentration of the above-mentioned compounds (1)-(19) with respect to their inhibition values within 10% to 90% inhibitory range.
row,IC50 [µM],Compound
1,0.017,CCCc1c(C(=O)C(N)=O)c2c(OCC(=O)O)nc(C)cn2c1CCc1ccccc1 [Compound 6]
2,0.005,NC(=O)C1=CCCc2c1c1c(OCC(=O)O)cccn1c2Cc1ccccc1 [Compound 7]
3,0.01,NC(=O)c1cccc2c1c1c(OCC(=O)O)cc(-c3ccco3)cc1n2Cc1ccccc1 [Compound 11]
